The source of these data is patent EP0300107A1, “Ester, thioester and amide derivatives of oxolinic acid, process for their synthesis and their therapeutical use” (VETOQUINOL S.A., priority 1987, dated 1989).

Structures are written as SMILES. Like-named read-outs stand apart in the source and are kept apart here.

Data set [1] in a line: Plasma levels after intramuscular injection in the dog. The arrangement: species or system chien. The settings on record: in vivo; for concentration at 0.5 h / concentration at 1 h / concentration at 2 h / concentration at 4 h / concentration at 6 h / concentration at 12 h / concentration at 24 h: dog, im. As to the method:
a/ Détermination des taux plasmatiques après injection par voie intramusculaire chez le chien
Dose administrée : 15 mg/kg en équivalent acide oxolinique (Comparaison avec l'activité pharmacocinétique de l'acide oxolinique) TABLEAU III

Data set [2] in a line: Plasma levels after intravenous injection in the dog. Also noted: species or system chien. The settings on record: in vivo. As to the method: b/ Détermination des taux plasmatiques après injection intraveineuse chez le chien
Dose administrée : 15 mg/kg en équivalent acide oxolinique TABLEAU IV

Data set [3] in a line: Plasma levels after intramuscular injection in the rat. In kind it is in vivo. As to the method:
c/ Détermination des taux plasmatiques après injection par voie intramusculaire chez le rat
Dose administrée : 20 mg/kg en équivalent acide oxolinique TABLEAU V

Data set [4] in a line: Presence of the active principle in tissues after intramuscular injection in the rat. Type of data set: in vivo. Particulars: i.m., 20 mg/kg en équivalent acide oxolinique. As to the method: d/ Détermination de la présence du principe actif dans les tissus après injection par voie intramusculaire chez le rat
Dose administrée : 20 mg/kg en équivalent acide oxolinique TABLEAU VI

Data set [5] can be described thus: Solubility in water and in usual solvents. Particulars: qualitative statement.
A short description of data set [6]: Hydrolysis kinetics at room temperature. In kind it is physicochemical. The source says: Ainsi par exemple, l'étude cinétique à température ambiante de l'hydrolyse du composé JL 93V (stable en milieu faiblement acide et en milieu neutre) montre qu'il y a libération d'environ 50 % du principe actif (acide oxolinique) après 24 heures d'hydrolyse en milieu hydroxyde de sodium 0,001 M et coupure immédiate de la liaison ester en milieu hydroxyde de sodium 0,1 M. Cette liaison ester, tout comme d'ailleurs la liaison thioester ou amide, apparaît donc comme étant suffisamment labile par hydrolyse pour libérer le principe actif dans l'organisme.

Data set [7] is described as follows: Acute toxicity, lethal dose 50 in the mouse. The settings on record: in vivo, souris, read-out: DL 50 (the source's name). As to the method:
La toxicité des composés selon l'invention a également été étudiée par la mesure de la dose léthale 50 (DL 50) chez la souris et ils se sont révélés être satisfaisants sur ce plan. A titre d'exemple, on notera que pour le composé JL 93V, la DL 50 (souris; voie intraveineuse) est de 240 mg/kg et que la DL 50 (souris; voie orale) est de 1120 mg/kg.

In the case of `CCn1cc(C(=O)O)c(=O)c2cc3c(cc21)OCO3` [Acide oxolinique, acide oxolinique, reference compound], the concentration at 0.5 h amounted to 6060 ng/mL in data set [1] (chien, i.m., 15 mg/kg en équivalent acide oxolinique, 0,5 h, read-out: Taux plasmatiques) and 36800 ng/mL in data set [2] (chien, i.v., 15 mg/kg en équivalent acide oxolinique, 0,5 h, read-out: Taux plasmatiques). For the same compound, the concentration at 1 h in data set [1] (chien, i.m., 15 mg/kg en équivalent acide oxolinique, 1 h, read-out: Taux plasmatiques) turned out to be 6550 ng/mL; in data set [2] (chien, i.v., 15 mg/kg en équivalent acide oxolinique, 1 h, read-out: Taux plasmatiques) it was 29800 ng/mL; in data set [3] (in vivo, im, 20 mg/kg en équivalent acide oxolinique, 1 h, read-out: Taux plasmatiques) it was 785 ng/mL. Moreover, the concentration at 2 h amounted to 5460 ng/mL in data set [1] (chien, i.m., 15 mg/kg en équivalent acide oxolinique, 2 h, read-out: Taux plasmatiques) and 22300 ng/mL in data set [2] (chien, i.v., 15 mg/kg en équivalent acide oxolinique, 2 h, read-out: Taux plasmatiques). For the same compound, the concentration at 4 h in data set [1] (chien, i.m., 15 mg/kg en équivalent acide oxolinique, 4 h, read-out: Taux plasmatiques) amounted to 3030 ng/mL. Besides, the concentration at 6 h in data set [1] (chien, i.m., 15 mg/kg en équivalent acide oxolinique, 6 h, read-out: Taux plasmatiques) was determined as 2470 ng/mL; in data set [2] (chien, i.v., 15 mg/kg en équivalent acide oxolinique, 6 h, read-out: Taux plasmatiques), 8890 ng/mL. The concentration at 12 h in data set [1] (chien, i.m., 15 mg/kg en équivalent acide oxolinique, 12 h, read-out: Taux plasmatiques) worked out at 1430 ng/mL. The concentration at 24 h in data set [1] (chien, i.m., 15 mg/kg en équivalent acide oxolinique, 24 h, read-out: Taux plasmatiques) stood at 980 ng/mL; in data set [2] (chien, i.v., 15 mg/kg en équivalent acide oxolinique, 24 h, read-out: Taux plasmatiques), 150 ng/mL. In data set [2] (chien, i.v., 15 mg/kg en équivalent acide oxolinique, 8 h, read-out: Taux plasmatiques), the concentration at 8 h stood at 5650 ng/mL. In addition, the concentration at 10 h in data set [2] (chien, i.v., 15 mg/kg en équivalent acide oxolinique, 10 h, read-out: Taux plasmatiques) was found to be 3590 ng/mL. Further, the Taux plasmatiques result in data set [3] (i.m., 20 mg/kg en équivalent acide oxolinique, 6 h) is listed as “nul”; in data set [3] (i.m., 20 mg/kg en équivalent acide oxolinique, 24 h), “nul”. The concentration at 3 h in data set [3] (in vivo, im, 20 mg/kg en équivalent acide oxolinique, 3 h, read-out: Taux plasmatiques) is 225 ng/mL. For the same compound, the “Présence dans les tissus (foie, poumons, reins, muscles)” value in data set [4] (1 h), in data set [4] (3 h), in data set [4] (6 h) and in data set [4] (24 h) was “nulle” each time. Further, the “solubilité dans l'eau ou les solvants organiques habituellement utilisés en galénique” value in data set [5] is “relativement peu soluble”.

For the compound `CCOCCOCCOC(=O)c1cn(CC)c2cc3c(cc2c1=O)OCO3` [JL 93V], the degraded at 24 h in data set [6] (0.001 m naoh, room temperature, after 24 heures of hydrolysis in hydroxyde de sodium 0,001 M, read-out: libération du principe actif (acide oxolinique)) was roughly 50%. For the same compound, in data set [6] (milieu faiblement acide and milieu neutre), the stabilité result was “stable”. The “coupure de la liaison ester” value in data set [6] (room temperature, hydroxyde de sodium 0,1 M) is “immédiate”. In data set [1] (15 mg/kg), this compound came in with a concentration at 0.5 h of 7250 ng/mL, a concentration at 1 h of 16100 ng/mL, a concentration at 2 h of 15600 ng/mL and a concentration at 4 h of 10800 ng/mL. In addition, in data set [1] (15 mg/kg), the concentration at 6 h came to 6080 ng/mL, the concentration at 12 h worked out at 2310 ng/mL, the concentration at 24 h came to 450 ng/mL and the “aire sous la courbe (taux en fonction du temps)” value was “plus importante”. In data set [2] (15 mg/kg), this compound had a concentration at 0.5 h of 33600 ng/mL, a concentration at 1 h of 30200 ng/mL, a concentration at 2 h of 23400 ng/mL and a concentration at 6 h of 10900 ng/mL. In data set [2] (15 mg/kg), the concentration at 8 h is 8230 ng/mL, the concentration at 10 h was found to be 6350 ng/mL and the concentration at 24 h worked out at 1190 ng/mL. Besides, in data set [3] (in vivo, 20 mg/kg), the Taux plasmatiques entry is “nul” and the “aire sous la courbe” value is “plus importante”. Moreover, in data set [3] (in vivo, im, 20 mg/kg), the concentration at 1 h came out at 15700 ng/mL, the concentration at 3 h is 8780 ng/mL and the concentration at 6 h came out at 3420 ng/mL. In data set [7] (iv, voie intraveineuse), the LD50 was 240 mg/kg. In data set [7] (po, voie orale), the LD50 was 1120 mg/kg.
